Reference: US7786141B2 (Vertex Pharmaceuticals Incorporated, priority 2004, dated 2010)

How the values were obtained:
M1 muscarinic receptor = biological target: T1, M1 muscarinic receptor (Homo sapiens, UniProt P11229); assay: Functional mobilization of intracellular calcium (FLIPR) in M1-CHO cells; assay type: cell-based; details: Table 4; for Emax: 100% efficacy is the maximum response obtained with the Carbachol control; for M1 Activity: M1 receptor, calcium mobilization (FLIPR)
T1 construct: expressed in transfected cells; host or cells: CHO (M1-CHO)
T1 sequence (P11229 1-460): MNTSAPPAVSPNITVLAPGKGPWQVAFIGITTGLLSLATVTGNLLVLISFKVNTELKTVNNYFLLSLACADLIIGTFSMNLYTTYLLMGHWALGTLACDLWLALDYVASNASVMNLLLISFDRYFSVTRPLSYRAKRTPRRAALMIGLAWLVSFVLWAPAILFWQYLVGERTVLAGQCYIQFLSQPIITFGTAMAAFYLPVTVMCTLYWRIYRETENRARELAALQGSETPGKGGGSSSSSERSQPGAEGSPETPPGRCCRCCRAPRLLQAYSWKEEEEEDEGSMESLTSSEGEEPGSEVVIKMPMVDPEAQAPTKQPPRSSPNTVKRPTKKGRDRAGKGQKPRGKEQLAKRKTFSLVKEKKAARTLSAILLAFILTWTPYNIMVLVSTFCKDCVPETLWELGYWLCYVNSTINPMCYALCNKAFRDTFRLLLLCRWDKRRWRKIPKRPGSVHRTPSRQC
Procedure, shortened: (§1)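 Steps: seed M1- or M4-CHO cells 18-24 hrs ahead; load calcium dye with 1 mM probenecid; add test compound (0.5% DMSO final), either alone for agonism or 15 min before EC80 carbachol for inhibition; record FLIPR fluorescence for 60 sec.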

M4 muscarinic receptor = biological target: T2, M4 muscarinic receptor (Homo sapiens, UniProt P08173); assay: Functional mobilization of intracellular calcium (FLIPR) in M4-CHO cells; assay type: cell-based; details: Table 4; for Emax: 100% efficacy is the maximum response obtained with the Carbachol control; for M4 Activity: M4 receptor, calcium mobilization (FLIPR)
T2 construct: expressed in transfected cells; host or cells: CHO (M4-CHO)
T2 sequence (P08173 1-479): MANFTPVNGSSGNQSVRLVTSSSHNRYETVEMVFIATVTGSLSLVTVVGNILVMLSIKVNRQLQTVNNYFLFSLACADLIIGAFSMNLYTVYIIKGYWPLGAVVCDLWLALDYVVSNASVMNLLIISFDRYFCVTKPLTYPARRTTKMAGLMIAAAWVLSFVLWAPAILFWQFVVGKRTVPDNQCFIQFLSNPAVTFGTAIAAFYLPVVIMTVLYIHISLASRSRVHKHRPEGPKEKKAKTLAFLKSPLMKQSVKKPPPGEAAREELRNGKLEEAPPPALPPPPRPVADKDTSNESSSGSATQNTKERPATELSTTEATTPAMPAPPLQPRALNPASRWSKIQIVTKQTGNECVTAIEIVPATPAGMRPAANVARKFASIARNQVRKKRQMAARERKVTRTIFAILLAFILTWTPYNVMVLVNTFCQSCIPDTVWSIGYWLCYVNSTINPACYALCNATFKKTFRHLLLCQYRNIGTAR
Procedure, shortened: as §1

## Cc1ccc2c(c1)C1(CCN(C3CC4CCC3C4)CC1)CN2C(=O)c1ccncc1 (stereo not shown) [compound 840]
M1 muscarinic receptor
  Emax: < 25%
  M1 Activity: x (activity was measured to be greater than 5.0 μM)
M4 muscarinic receptor
  Emax: < 25%
  M4 Activity: x (activity was measured to be greater than 5.0 μM)

## O=C(N[C@H]1CC2(CCN(C3CCCCC3)CC2)c2ccccc21)N1CCCC1 [compound 842]
M1 muscarinic receptor
  Emax: < 25%
  M1 Activity: x (activity was measured to be greater than 5.0 μM)
M4 muscarinic receptor
  Emax: < 25%
  M4 Activity: xxx (activity was measured to be less than 2.0 μM)

## CCOC(=O)N1CC[C@@H](CN2CCC3(CC2)CN(C(C)=O)c2ccccc23)C1 [compound 843]
M1 muscarinic receptor
  Emax: 25 to 100%
  M1 Activity: xxx (activity was measured to be less than 2.0 μM)
M4 muscarinic receptor
  Emax: 25 to 100%
  M4 Activity: xxx (activity was measured to be less than 2.0 μM)

## CC#CCN1CC2(CCN(C3CCN(C(=O)OCC)CC3)CC2)c2cc(F)ccc21 [compound 844]
M1 muscarinic receptor
  Emax: 25 to 100%
  M1 Activity: xxx (activity was measured to be less than 2.0 μM)
M4 muscarinic receptor
  Emax: 25 to 100%
  M4 Activity: xxx (activity was measured to be less than 2.0 μM)

## CC(=O)N1CC2(CCN(CC3=CCC4C[C@@H]3C4(C)C)CC2)c2cc(F)ccc21 [compound 845]
M1 muscarinic receptor
  Emax: < 25%
  M1 Activity: x (activity was measured to be greater than 5.0 μM)
M4 muscarinic receptor
  Emax: < 25%
  M4 Activity: x (activity was measured to be greater than 5.0 μM)

## O=C1CC2(CCN(CC3CCCCC3)C2)c2ccc(F)cc21 (stereo not shown) [compound 846]
M1 muscarinic receptor
  Emax: < 25%
  M1 Activity: xx (activity was measured to be between 2.0 μM and 5.0 μM)
M4 muscarinic receptor
  Emax: < 25%
  M4 Activity: xx (activity was measured to be between 2.0 μM and 5.0 μM)

## CN(C)C(=O)N1CC2(CCN(C[C@H]3CCN(C(=O)OCC(F)F)C3)CC2)c2cc(F)ccc21 [compound 848]
M1 muscarinic receptor
  Emax: 25 to 100%
  M1 Activity: xxx (activity was measured to be less than 2.0 μM)
M4 muscarinic receptor
  Emax: > 100%
  M4 Activity: xxx (activity was measured to be less than 2.0 μM)

## CCOC1CCCCC1N1CCC2(CC1)CN(C(C)=O)c1ccc(F)cc12 (stereo not shown) [compound 849]
M1 muscarinic receptor
  Emax: < 25%
  M1 Activity: x (activity was measured to be greater than 5.0 μM)
M4 muscarinic receptor
  Emax: < 25%
  M4 Activity: x (activity was measured to be greater than 5.0 μM)

## CCOC(=O)N1CCC(N2CCC3(CC2)CN(C(=O)CCC(C)=O)c2ccc(F)cc23)CC1 [compound 851]
M1 muscarinic receptor
  Emax: 25 to 100%
  M1 Activity: xxx (activity was measured to be less than 2.0 μM)
M4 muscarinic receptor
  Emax: 25 to 100%
  M4 Activity: xxx (activity was measured to be less than 2.0 μM)

## CN(C)C(=O)N1CC2(CCN(C[C@H]3CCN(c4nccs4)C3)CC2)c2cc(F)ccc21 [compound 852]
M1 muscarinic receptor
  Emax: 25 to 100%
  M1 Activity: xx (activity was measured to be between 2.0 μM and 5.0 μM)
M4 muscarinic receptor
  Emax: 25 to 100%
  M4 Activity: xxx (activity was measured to be less than 2.0 μM)

## CC#CCOC(=O)N1CCC(N2CCC3(CC2)CN(CCOC)c2ccc(F)cc23)CC1 [compound 853]
M1 muscarinic receptor
  Emax: 25 to 100%
  M1 Activity: xxx (activity was measured to be less than 2.0 μM)
M4 muscarinic receptor
  Emax: 25 to 100%
  M4 Activity: xxx (activity was measured to be less than 2.0 μM)

## O=C1CCCN1[C@H]1CCC2(CCN([C@H]3CC4CC[C@H](C4)C3)CC2)c2ccccc21 [compound 854]
M1 muscarinic receptor
  Emax: 25 to 100%
  M1 Activity: xxx (activity was measured to be less than 2.0 μM)
M4 muscarinic receptor
  Emax: 25 to 100%
  M4 Activity: xxx (activity was measured to be less than 2.0 μM)

## CCOC(=O)N1CCC(N2CCC3(CC2)CN(c2cncnc2)c2ccc(F)cc23)CC1 [compound 855]
M1 muscarinic receptor
  Emax: 25 to 100%
  M1 Activity: xxx (activity was measured to be less than 2.0 μM)
M4 muscarinic receptor
  Emax: 25 to 100%
  M4 Activity: xxx (activity was measured to be less than 2.0 μM)

## O=C1CCCN1[C@H]1CCC2(CCN(C[C@@H]3C[C@H]4C=CC3C4)CC2)c2ccccc21 [compound 856]
M1 muscarinic receptor
  Emax: 25 to 100%
  M1 Activity: xxx (activity was measured to be less than 2.0 μM)
M4 muscarinic receptor
  Emax: 25 to 100%
  M4 Activity: xxx (activity was measured to be less than 2.0 μM)

## CCOC(=O)N1CCC(N2CCC3(CC2)CN(C(C)=O)c2c(-c4ccccc4)cccc23)CC1 [compound 857]
M1 muscarinic receptor
  Emax: 25 to 100%
  M1 Activity: x (activity was measured to be greater than 5.0 μM)
M4 muscarinic receptor
  Emax: < 25%
  M4 Activity: x (activity was measured to be greater than 5.0 μM)

## CCOC(=O)N1CCC(N2CCC3(CC2)CN(C(C)=O)c2c(CC)cccc23)CC1 [compound 859]
M1 muscarinic receptor
  Emax: 25 to 100%
  M1 Activity: x (activity was measured to be greater than 5.0 μM)
M4 muscarinic receptor
  Emax: 25 to 100%
  M4 Activity: x (activity was measured to be greater than 5.0 μM)

## CC(=O)N1CC2(CCN(C[C@H]3CCN(c4cnccn4)C3)CC2)c2c(C)cccc21 [compound 860]
M1 muscarinic receptor
  Emax: 25 to 100%
  M1 Activity: xxx (activity was measured to be less than 2.0 μM)
M4 muscarinic receptor
  Emax: 25 to 100%
  M4 Activity: xxx (activity was measured to be less than 2.0 μM)

## CC(=O)N[C@H]1CCC2(CCN([C@H]3CC4CC[C@H](C4)C3)CC2)c2ccccc21 [compound 861]
M1 muscarinic receptor
  Emax: 25 to 100%
  M1 Activity: xxx (activity was measured to be less than 2.0 μM)
M4 muscarinic receptor
  Emax: 25 to 100%
  M4 Activity: xxx (activity was measured to be less than 2.0 μM)

## CCOC(=O)N1CCC(N2CCC3(CC2)CN(C(C)=O)c2ccc(C#N)cc23)CC1 [compound 862]
M1 muscarinic receptor
  Emax: 25 to 100%
  M1 Activity: xxx (activity was measured to be less than 2.0 μM)
M4 muscarinic receptor
  Emax: 25 to 100%
  M4 Activity: xxx (activity was measured to be less than 2.0 μM)

## Cc1ccc2c(c1)C(=O)CC21CCN(C2CCCCCC2)CC1 [compound 863]
M1 muscarinic receptor
  Emax: 25 to 100%
  M1 Activity: x (activity was measured to be greater than 5.0 μM)
M4 muscarinic receptor
  Emax: 25 to 100%
  M4 Activity: xx (activity was measured to be between 2.0 μM and 5.0 μM)

## CC(=O)N1CC2(CCN(C[C@H]3CCN(C(=O)OC(C)C)C3)CC2)c2ccccc21 [compound 864]
M1 muscarinic receptor
  Emax: < 25%
  M1 Activity: x (activity was measured to be greater than 5.0 μM)
M4 muscarinic receptor
  Emax: < 25%
  M4 Activity: x (activity was measured to be greater than 5.0 μM)

## CCO/N=C1\CC2(CCN([C@@H]3C[C@@H]4CC[C@@H]3C4)CC2)c2cc(Cl)ccc21 [compound 865]
M1 muscarinic receptor
  Emax: 25 to 100%
  M1 Activity: xx (activity was measured to be between 2.0 μM and 5.0 μM)
M4 muscarinic receptor
  Emax: 25 to 100%
  M4 Activity: xxx (activity was measured to be less than 2.0 μM)

## CN(C)C(=O)N1CC2(CCN(C3CCN(c4cccc(F)c4)CC3)CC2)c2cc(F)ccc21 [compound 866]
M1 muscarinic receptor
  Emax: 25 to 100%
  M1 Activity: xx (activity was measured to be between 2.0 μM and 5.0 μM)
M4 muscarinic receptor
  Emax: 25 to 100%
  M4 Activity: xxx (activity was measured to be less than 2.0 μM)

## O=C(N[C@H]1CC2(CCN([C@@H]3C[C@@H]4CC[C@@H]3C4)CC2)c2ccccc21)c1ccoc1 [compound 868]
M1 muscarinic receptor
  Emax: < 25%
  M1 Activity: x (activity was measured to be greater than 5.0 μM)
M4 muscarinic receptor
  Emax: 25 to 100%
  M4 Activity: xxx (activity was measured to be less than 2.0 μM)

## CCOC(=O)N1CCC(CN2CCC3(CC2)CN(C(C)=O)c2c(C)cc(C)cc23)CC1 [compound 869]
M1 muscarinic receptor
  Emax: 25 to 100%
  M1 Activity: xx (activity was measured to be between 2.0 μM and 5.0 μM)
M4 muscarinic receptor
  Emax: 25 to 100%
  M4 Activity: xxx (activity was measured to be less than 2.0 μM)

## CC(=O)N1CC2(CCN(C[C@H]3CCN(C(=O)OCC(F)F)C3)CC2)c2ccccc21 [compound 871]
M1 muscarinic receptor
  Emax: 25 to 100%
  M1 Activity: x (activity was measured to be greater than 5.0 μM)
M4 muscarinic receptor
  Emax: 25 to 100%
  M4 Activity: xx (activity was measured to be between 2.0 μM and 5.0 μM)

## CCOC(=O)N1CCC(N2CCC3(CC2)CN(C(C)=O)c2ccc(C(C)C)cc23)CC1 [compound 872]
M1 muscarinic receptor
  Emax: 25 to 100%
  M1 Activity: xxx (activity was measured to be less than 2.0 μM)
M4 muscarinic receptor
  Emax: 25 to 100%
  M4 Activity: xxx (activity was measured to be less than 2.0 μM)

## CC1=C(CCN2CCC3(CC2)C[C@H](NC(=O)C2CCCC2)c2ccccc23)C(C)(C)CCC1 [compound 873]
M1 muscarinic receptor
  Emax: < 25%
  M1 Activity: x (activity was measured to be greater than 5.0 μM)
M4 muscarinic receptor
  Emax: < 25%
  M4 Activity: x (activity was measured to be greater than 5.0 μM)
